US20050070508A1, “Napthalene carboxamides and their derivatives useful as new anti-angiogenic agents” (AGOURON PHARMACEUTICALS, INC., priority 2003, published 2005)

How the values were obtained:
[1] = biological target: T1, human vascular endothelial growth factor receptor 2 (VEGF-R2) (Homo sapiens, UniProt P35968, DEL940-989/E990V); assay: VEGF-R2 coupled spectrophotometric assay (FLVK); type: biochemical; settings: unphosphorylated VEGF-R2D50 (FLVK)
T1 construct: VEGF-R2D50 contains residues 806-939 and 990-1171; made in house; host or cells: baculovirus/insect cell system
Excerpt: This construct determines the ability of a test compound to inhibit tyrosine kinase activity. A construct (VEGF-R2D50) of the cytosolic domain of human vascular endothelial growth factor receptor 2 (VEGF-R2) lacking the 50 central residues of the 68 residues of the kinase insert domain was expressed in a baculovirus/insect cell system. Of the 1356 residues of full-length VEGF-R2, VEGF-R2D50 contains residues 806-939 and 990-1171, and also one point mutation (E990V) within the kinase insert domain relative to wild-type VEGF-R2. Autophosphorylation of the purified construct was performed by incubation of the enzyme at a concentration of […] in the presence of 3 mM ATP and 40 mM MgCl2 in 100 mM HEPES, pH 7.5, containing 5% glycerol and 5 mM DTT, at 4° C. for 2 h. […] See Parast et al., Biochemistry, 37, 16788-16801 (1998).
The production of ADP from ATP that accompanies phosphoryl transfer was coupled to oxidation of NADH using phosphoenolpyruvate (PEP) and a system having pyruvate kinase (PK) and lactic dehydrogenase (LDH). The oxidation of NADH was monitored by following the decrease of absorbance at 340 nm (e340=6.22 cm^−1 mM^−1) using a Beckman DU 650 spectrophotometer. Assay conditions for phosphorylated VEGF-R2D50 (indicated as FLVK-P in the tables below) were the following: 1 mM PEP; […]; 50 units of LDH/mL; 20 units of PK/mL; 5 mM DTT; 5.1 mM poly(E4Y1); 1 mM ATP; and 25 mM MgCl2 in 200 mM HEPES, pH 7.5. Assay conditions for unphosphorylated VEGF-R2D50 (indicated as FLVK in the tables) were the following: 1 mM PEP; […]; 50 units of LDH/mL; 20 units of PK/mL; 5 mM DTT; 20 mM poly(E4Y1); 3 mM ATP; and 60 mM MgCl2 and 2 mM MnCl2 in 200 mM HEPES, pH 7.5. Assays were initiated with 5 to 40 nM of enzyme. Ki values were determined by measuring enzyme activity in the presence of varying concentrations of test compounds. The percent inhibition at 50 nm (% inhibition @ 50 nm) was determined by linear least-squares regression analysis of absorbance as a function of time. The binding inhibitions were fitted to equation as described by Morrison. The data were analyzed using Enzyme Kinetic and Kaleidagraph software.

[2] = system: human umbilical vein endothelial cells (HUVEC); assay: HUVEC+VEGF Proliferation Assay; type: cell-based; settings: VEGF-stimulated proliferation, final VEGF 6 ng/mL, 72 hours, MTT dye reduction
Description: This assay determines the ability of a test compound to inhibit the growth factor-stimulated proliferation of human umbilical vein endothelial cells (“HUVEC”). HUVEC cells (passage 3-4, Clonetics, Corp.) were thawed into EGM2 culture medium (Clonetics Corp) in T75 flasks. Fresh EGM2 medium was added to the flasks 24 hours later. Four or five days later, cells were exposed to another culture medium (F12K medium supplemented with 10% fetal bovine serum (FBS), […] endothelial cell growth supplement (ECGS), and 0.1 mg/mL heparin). Exponentially-growing HUVEC cells were used in experiments thereafter. Ten to twelve thousand HUVEC cells were plated in 96-well dishes in […] of rich, culture medium (described above). The cells were allowed to attach for 24 hours in this medium. The medium was then removed by aspiration and […] of starvation media (F12K+1% FBS) was added to each well. After 24 hours, […] of test agent dissolved in 1% DMSO in starvation medium or this vehicle alone was added into each treatment well; the final DMSO concentration was 0.1%. One hour later, […] of VEGF (30 ng/mL) in starvation media was added to all wells except those containing untreated controls; the final VEGF concentration was 6 ng/mL. Cellular proliferation was quantified 72 hours later by MTT dye reduction, at which time cells were exposed for 4 hours MTT (Promega Corp.). Dye reduction was stopped by addition of a stop solution (Promega Corp.) and absorbance at 595 nm was determined on a 96-well spectrophotometer plate reader.

T1 sequence (P35968 with tags, fused parts or gaps DEL940-989/E990V limits assumed): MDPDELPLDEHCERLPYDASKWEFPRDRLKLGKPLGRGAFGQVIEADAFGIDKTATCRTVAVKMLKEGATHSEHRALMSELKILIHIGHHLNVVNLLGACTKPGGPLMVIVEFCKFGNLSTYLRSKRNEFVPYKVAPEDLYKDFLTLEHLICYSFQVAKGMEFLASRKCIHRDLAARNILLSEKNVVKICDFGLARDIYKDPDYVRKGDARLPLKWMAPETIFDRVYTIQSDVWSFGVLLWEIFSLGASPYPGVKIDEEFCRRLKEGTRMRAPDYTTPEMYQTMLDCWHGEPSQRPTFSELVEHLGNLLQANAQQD

Row | Compound | Ki [1] | IC50 [2]
1 | O=C(Nc1ccc(N2CCC(O)CC2)nc1)c1cccc2cc(Oc3ccnc4ccsc34)ccc12 [Example 34, 6-(Thieno[3,2-b]pyridin-7-yloxy)-naphthalene-1-carboxylic acid (4-hydroxy-3,4,5,6-tetrahydro-2H-[1,2′]bipyridinyl-5′-yl)-amide] | < 1 nM | 1 to 10 nM
2 | O=C(Nc1ccc(N2CCOCC2)nc1)c1cccc2cc(Oc3ccnc4ccsc34)ccc12 [Example 35, 6-(Thieno[3,2-b]pyridin-7-yloxy)-naphthalene-1-carboxylic acid (6-morpholin-4-yl-pyridin-3-yl)-amide] | < 1 nM | 1 to 10 nM
3 | O=C(NCCCN1CCOCC1)c1cccc2cc(Oc3ccnc4ccsc34)ccc12 [Example 39, 6-(Thieno[3,2-b]pyridin-7-yloxy)-naphthalene-1-carboxylic acid (3-morpholin-4-yl-propyl)-amide] | 1 to 10 nM | 1 to 10 nM
4 | O=C(NCCCN1CCOCC1)c1cccc2cc(Oc3ncnc4ccsc34)ccc12 [Example 42, 6-(Thieno [3,2-d]pyrimidin-4-yloxy)-naphthalene-1-carboxylic acid (3-morpholin-4-yl-propyl)-amide] | 1 to 10 nM | > 10 nM
5 | CNC(=O)c1cccc2cc(Oc3ccnc4cc(OC)ccc34)ccc12 [Example 43, 6-(7-Methoxy-quinolin-4-yloxy)-naphthalene-1-carboxylic Acid Methylamide] | 1 to 10 nM | 1 to 10 nM
6 | CNC(=O)c1cccc2cc(Oc3ccnc4cc(OCCN5CCOCC5)ccc34)ccc12 [Example 45, 6-[7-(2-Morpholin-4-yl-ethoxy)-quinolin-4-yloxy]-naphthalene-1-carboxylic Acid Methylamide] | < 1 nM | < 1 nM
7 | CNC(=O)c1cccc2cc(Oc3ccnc4cc(OCCN5CCCCC5)ccc34)ccc12 [Example 46, 6-[7-(2-Piperidin-1-yl-ethoxy)-quinolin-4-yloxy]-naphthalene-1-carboxylic Acid Methylamide] | 1 to 10 nM | < 1 nM
8 | CCCCNC(=O)c1cccc2cc(Oc3ccnc4cc(OCCN5CCCC5)ccc34)ccc12 [Example 49, 6-[7-(2-Pyrrolidin-1-yl-ethoxy)-quinolin-4-yloxy]-naphthalene-1-carboxylic Acid Butylamide] | 1 to 10 nM | 1 to 10 nM
9 | COc1ccc2c(Oc3ccc4c(C(=O)NC(C)C)cccc4c3)ccnc2c1 [Example 50, 6-(7-Methoxy-quinolin-4-yloxy)-naphthalene-1-carboxylic Acid Isopropylamide] | 1 to 10 nM | > 10 nM
10 | COc1ccc2c(Oc3ccc4c(C(=O)NC5CC5)cccc4c3)ccnc2c1 [Example 51, 6-(7-Methoxy-quinolin-4-yloxy)-naphthalene-1-carboxylic acid cyclopropylamide] | < 1 nM | 1 to 10 nM
